SMILES strings stand for the structures.

Series [1] has as its system CIA rats. In words: Collagen-II induced arthritis (CIA) rat model. It counts as in vivo. The procedure: Experimental arthritis induced by collagen-II in rats. CIA is induced in female Wistar rats. Dexamethasone (DEX, 0.1 mg/kg), methotrexate (MTX, 3.75 mg/kg, twice per week) and indomethacin (Indo, 1 mg/kg) are used as reference drugs.
Series [2] has as its system IKK-β C46A mutant mice. The series is described as follows: DNFB-induced delay-type hypersensitivity test with immunohistochemical staining, mutant mice. The class given is in vivo, mouse. Particulars: homozygous IKK-β C46A mutant mice. The text has this: (§1) Delay-Type Hypersensitivity Test and Immunohistochemical Staining.
(§2) The in vivo anti-inflammatory effect of DMY on CD4^+ and CD8^+ lymphocytes is examined by administering this inhibitor to the mouse with delay-type hypersensitivity (DTH) based on the previously described method. The ear samples of DTH mice are fixed in 4% neutral-buffered formalin. Each sample is cut longitudinally into half and embedded in paraffin (Panreac), and then cut into 5 μm sections. Immunohistochemical staining is performed on slides.

Series [3] has as its system IKK-β+/+ mice. The series is described as follows: DNFB-induced delay-type hypersensitivity test with immunohistochemical staining, wild-type mice. Particulars: DNFB-induced DTH, FIG. 7. The class given is in vivo, mouse.
Excerpt: as §1, §2

Series [4] concerns the target T1, IKK-β C46A mutant (Homo sapiens, UniProt O14920, C46A).
T1 construct: FLAG; made in house
T1 sequence (O14920 1-756 C46A): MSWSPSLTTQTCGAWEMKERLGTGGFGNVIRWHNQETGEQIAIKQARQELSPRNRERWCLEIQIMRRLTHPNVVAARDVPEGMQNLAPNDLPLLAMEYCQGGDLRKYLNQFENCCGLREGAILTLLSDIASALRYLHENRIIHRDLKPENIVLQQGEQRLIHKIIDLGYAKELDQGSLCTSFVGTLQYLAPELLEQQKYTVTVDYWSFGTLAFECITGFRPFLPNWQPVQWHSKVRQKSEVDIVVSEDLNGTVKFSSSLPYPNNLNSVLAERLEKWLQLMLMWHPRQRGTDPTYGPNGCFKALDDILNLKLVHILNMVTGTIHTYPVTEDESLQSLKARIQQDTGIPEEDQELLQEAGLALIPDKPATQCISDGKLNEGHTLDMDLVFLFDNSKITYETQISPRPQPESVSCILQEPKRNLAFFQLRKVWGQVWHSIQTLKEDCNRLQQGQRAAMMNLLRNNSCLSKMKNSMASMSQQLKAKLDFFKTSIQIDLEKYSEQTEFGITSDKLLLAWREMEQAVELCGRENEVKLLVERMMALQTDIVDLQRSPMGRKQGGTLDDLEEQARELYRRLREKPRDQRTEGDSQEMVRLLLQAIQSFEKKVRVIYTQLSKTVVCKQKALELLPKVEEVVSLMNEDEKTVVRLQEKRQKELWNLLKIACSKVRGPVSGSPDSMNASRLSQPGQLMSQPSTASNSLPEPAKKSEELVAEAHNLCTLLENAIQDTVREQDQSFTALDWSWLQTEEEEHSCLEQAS
In words: IKK-β kinase assay (K-LISA IKKβ-Inhibitor Screening Kit) on cysteine mutants. It counts as biochemical. As to conditions: FIG. 6a. The procedure: IKK-β kinase assay is performed using a K-LISA™ IKKβ-Inhibitor Screening Kit (Calbiochem).
To determine the specificity to which cysteine residue(s) on IKK-β for the inhibitory action of a well-known inhibitor, DMY, all other 15 single point mutation IKK-β constructs with cysteine (C) residues are replaced with alanine (A) by site-directed mutagenesis (FIG. 6a), except Cys-46.

The test system of series [5] is IKK-β (wt) / NF-κB signaling. In words: Western blotting of TNF-α-stimulated IKK-β−/− MEFs transfected with IKK-β wild-type. Particulars: DMY pretreatment 60 min, FIG. 6c. It counts as cell-based, mouse. The procedure: Western Blotting Analysis.
IKK-β^−/− deficient mouse embryonic fibroblasts (MEFs) are provided as a gift by Prof. Michael Karin (University of California, San Diego). IKK-β^−/− deficient MEFs transfected with IKK-β wild-type or mutant C46A constructs are pretreated with DMY at 37° C. for 60 min, and then the cells are stimulated with TNF-α and harvested for western blotting analysis. The expressions of IκBα, p-p65^ser536, FLAG-IKK-β and actin are detected with their specific antibodies.
For orientation: Immunoblotting shows a protein as a band on a membrane.

As to `O=C1c2c(O)cc(O)cc2O[C@H](c2cc(O)c(O)c(O)c2)[C@H]1O` [DMY, dihydromyricetin], in series [1] (CIA rats, FIG. 8c), the “NF-κB signaling in the knee synovial tissues” value is given as “significantly suppress”. Moreover, the organ indexes result in series [1] (CIA rats, FIG. 8d) is on record as “no adverse impairment”. Moreover, in series [1] (CIA rats, compared to vehicle- and reference reagents-treated animals, FIG. 8e), the body weight entry is on record as “prevent loss of body weight”. Moreover, the hind paw volumes result in series [1] (compared to vehicle-treated CIA rats, FIG. 8a) was “significantly decrease”. In series [1] (compared to vehicle-treated CIA rats, FIG. 8b), the arthritic scores entry is on record as “significantly decrease”. Besides, the “anti-inflammatory potency in DTH responses” value in series [2] is given as “diminished anti-inflammatory potency”. Also, the “number of CD8+ lymphocytes in ear sections” value in series [3] is on record as “gradually decreases”. For the same compound, the “kinase inhibitory effect (phosphorylation of IκBα)” value in series [4] was “abrogates the kinase inhibitory effect”. The “TNF-α-induced phosphorylation of NF-κB p65 and degradation of IκBα” value in series [5] is “suppression of TNF-α-induced phosphorylation of NF-κB p65 and degradation of IκBα”.

Source of the values: US9955676B2, “Transgenic model for delay-type hypersensitivity (DTH) and use thereof” (Macau University of Science and Technology, priority 2014, dated 2018).
